Key:
Human alpha-thrombin = molecular target: T1, Human alpha-thrombin (Homo sapiens, UniProt P00734); assay: Thrombin counterscreen for selectivity, fluorogenic substrate assay; format: biochemical; settings: Human alpha-thrombin 12.5 nM, Boc-Val-Pro-Arg-AMC 20 μM, 10 min preincubation
T1 construct: Human alpha-thrombin (Enzyme Research Labs); purchased Enzyme Research Labs
Method: Counterscreens for Selectivity:
In a 96-well white opaque plate, 80 μl of assay buffer was added to each well. Test compounds were added, and serially diluted as above, to generate a concentration range of approximately 1-100 μM. […] 80 μl of this enzyme solution was added to the assay wells. The enzyme/compound mixtures were incubated for 10 minutes at room temperature. Fluorogenic substrate (Boc-Val-Pro-Arg-7-amido-4-methylcoumarin; Sigma) was added to assay wells at a final concentration of 20 μM. The assay plate was spun for 1 minute at 1500 g and then read at 37° C. in a SpectraMax M2 plate reader (λex=380 nm and λem=460 nm). Activity was quantified as the rate of change in fluorescence, which corresponds to the rate of substrate cleavage.

Human FXIIa = molecular target: T2, Human FXIIa (Homo sapiens, UniProt P00748); assay: Factor XIIa (FXIIa) inhibitory activity, chromogenic substrate assay; format: biochemical; settings: Human FXIIa 12.5 nM, Pefachrome XIIa 400 μM, 10 min preincubation
T2 construct: active coagulation factor XII (FXIIa); purchased Enzyme Research Labs
T2 sequence (P00748 373-615 limits assumed): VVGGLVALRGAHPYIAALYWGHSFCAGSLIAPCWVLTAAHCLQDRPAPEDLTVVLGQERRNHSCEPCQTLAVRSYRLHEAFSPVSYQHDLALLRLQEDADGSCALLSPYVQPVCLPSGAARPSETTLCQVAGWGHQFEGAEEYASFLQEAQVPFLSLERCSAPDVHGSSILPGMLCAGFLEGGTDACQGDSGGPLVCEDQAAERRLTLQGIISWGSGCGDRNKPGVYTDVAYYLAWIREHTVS
T2 sequence (P00748 20-372 partner limits assumed): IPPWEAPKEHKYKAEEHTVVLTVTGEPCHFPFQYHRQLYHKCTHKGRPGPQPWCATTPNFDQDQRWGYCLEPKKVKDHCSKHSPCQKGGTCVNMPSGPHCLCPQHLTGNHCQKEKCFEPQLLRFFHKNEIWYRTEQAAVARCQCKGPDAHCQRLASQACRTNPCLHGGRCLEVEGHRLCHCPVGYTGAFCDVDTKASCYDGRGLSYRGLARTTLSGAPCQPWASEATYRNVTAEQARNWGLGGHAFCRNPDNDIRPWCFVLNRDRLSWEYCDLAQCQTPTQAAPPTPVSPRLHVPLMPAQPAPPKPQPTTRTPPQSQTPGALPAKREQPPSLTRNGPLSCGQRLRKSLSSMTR
Method in brief: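 Activity was taken as the rate of absorbance increase at 405 nm, read at 37 °C after adding 400 μM (final) Pefachrome XIIa. Compounds spanning roughly 1–100 μM were first preincubated with enzyme for 10 min at room temperature in HEPES pH 7.4-buffered HBSS/TBS-Tween.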

Compound | IC50 (Human alpha-thrombin) [µM] | IC50 (Human FXIIa) [µM]
Cc1cc2c(C(=O)n3nc4c(c3N)CCCC4)cccc2n1C [Example 22, (3-Amino-4,5,6,7-tetrahydroindazol-2-yl)(1,2-dimethyl-1H-indol-4-yl)methanone] | 20 | 0.04
Nc1nn(C(=O)c2cccc3c2ccn3-c2ccccc2)c2c1CCCC2 (single isomer, unassigned) [Example 21, (3-amino-4,5,6,7-tetrahydroindazol-1-yl)(1-phenyl-1H-indol-4-yl)methanone] | > 100 | –
Nc1c2c(nn1C(=O)C1CCNc3ccccc31)CCCC2 (single isomer, unassigned) [Example 76, (3-amino-4,5,6,7-tetrahydroindazol-2-yl)(1,2,3,4-tetrahydroquinolin-4-yl)methanone] | > 100 | 0.3
Cn1ccc2c(C(=O)n3nc4c(c3N)CCCC4)cccc21 (single isomer, unassigned) [Example 7, (3-Amino-4,5,6,7-tetrahydroindazol-2-yl)(1-methyl-1H-indol-4-yl)methanone] | 30 | 0.15
CCc1csc(C)c1C(=O)n1nc(N)c2c1CCCC2 (single isomer, unassigned) [Example 19, (3-amino-4,5,6,7-tetrahydroindazol-1-yl)(4-ethyl-2-methylthiophen-3-yl)methanone] | > 100 | > 100
Nc1c2c(nn1C(=O)c1cccc3[nH]c(Cl)cc13)CCCC2 (single isomer, unassigned) [Example 55, (3-amino-4,5,6,7-tetrahydroindazol-2-yl)(2-chloro-1H-indol-4-yl)methanone] | 20 | 0.01
Nc1c2c(nn1C(=O)[C@H]1CCNc3ccc(F)cc31)C[C@H](O)CC2 (single isomer, unassigned) [Example 185, ((6R*)-3-amino-6-hydroxy-4,5,6,7-tetrahydroindazol-2-yl)((4S*)-6-fluoro-1,2,3,4-tetrahydroquinolin-4-yl)methanone] | > 100 | 0.07
Cc1cc2c(C(=O)N3N=C(N)C4CCCCC43)cccc2[nH]1 (centres unmarked) [Example 10, (3-amino-3a,4,5,6,7,7a-hexahydroindazol-1-yl)(2-methyl-1H-indol-4-yl)methanone] | > 100 | 90
Nc1nn(C(=O)c2cccc3[nH]ccc23)c2c1CCCC2 (single isomer, unassigned) [Example 2, (3-amino-4,5,6,7-tetrahydroindazol-1-yl)(1H-indol-4-yl)methanone] | > 50 | > 50
C=Cc1cc2c(C(=O)n3nc(N)c4c3CCCC4)cccc2[nH]1 (single isomer, unassigned) [Example 71, (3-amino-4,5,6,7-tetrahydroindazol-1-yl)(2-vinyl-1H-indol-4-yl)methanone] | 55 | –
CN1CCC(C(=O)n2nc(N)c3c2CCCC3)c2ccccc21 (single isomer, unassigned) [Example 26, (3-amino-4,5,6,7-tetrahydroindazol-1-yl)(1-methyl-1,2,3,4-tetrahydroquinolin-4-yl)methanone] | > 80 | –
Nc1nn(C(=O)c2c[nH]c3ccccc23)c2c1CCCC2 [Example 155] | > 100 | –
Cc1[nH]c2ccccc2c1C(=O)n1nc2c(c1N)CCCC2 [Example 44, (3-amino-4,5,6,7-tetrahydroindazol-2-yl)(2-methyl-1H-indol-3-yl)methanone] | – | 11
Nc1c2c(nn1C(=O)C1CCCc3[nH]ccc31)CCCC2 (single isomer, unassigned) [Example 94, (S*)-(3-amino-4,5,6,7-tetrahydroindazol-2-yl)(4,5,6,7-tetrahydro-1H-indol-4-yl)methanone] | – | 0.25
Cc1cccc2c1NCC[C@H]2C(=O)n1nc(N)c2c1C[C@H](O)CC2 (single isomer, unassigned) [Example 202, ((6R*)-3-amino-6-hydroxy-4,5,6,7-tetrahydroindazol-1-yl)((4R*)-8-methyl-1,2,3,4-tetrahydroquinolin-4-yl)methanone] | – | > 175
Cc1cc2c(C(=O)n3nc4c(c3N)CCCC4)cccc2s1 [Example 57, (3-Amino-4,5,6,7-tetrahydro-indazol-2-yl)-(2-methyl-benzo[b]thiophen-4-yl)-methanone] | – | 0.06
Nc1c2c(nn1C(=O)[C@@H]1CCNc3ccccc31)CC[C@@H](O)C2 (single isomer, unassigned) [Example 166, ((5R*)-3-amino-5-hydroxy-4,5,6,7-tetrahydroindazol-2-yl)((4R*)-1,2,3,4-tetrahydroquinolin-4-yl)methanone] | > 100 | –
Cc1cccc2c1NCC[C@@H]2C(=O)n1nc2c(c1N)C[C@@H](N)CC2 (relative stereo) [Example 213, ((5S*)-3,5-diamino-4,5,6,7-tetrahydroindazol-2-yl)((4S*)-8-methyl-1,2,3,4-tetrahydroquinolin-4-yl)methanone] | – | 0.06
Cc1cc2c(C(=O)n3nc(N)c4c3CCC(OCc3ccccc3)C4)cccc2[nH]1 (centres unmarked) [Example 118, (3-amino-5-(benzyloxy)-4,5,6,7-tetrahydroindazol-1-yl)(2-methyl-1H-indol-4-yl)methanone] | – | 20
CCc1cc2c([nH]1)CCCC2C(=O)n1nc2c(c1N)CCCC2 (single isomer, unassigned) [Example 83, (S*)-(3-amino-4,5,6,7-tetrahydroindazol-2-yl)(2-ethyl-4,5,6,7-tetrahydro-1H-indol-4-yl)methanone] | – | 0.02
Nc1nn(C(=O)C2CCNc3ccc(F)cc32)c2c1CC(NC(=O)OCc1ccccc1)CC2 (single isomer, unassigned) [Example 191, benzyl N-[(5S*)-3-amino-1-[(6-fluoro-1,2,3,4-tetrahydroquinolin-4-yl)carbonyl]-4,5,6,7-tetrahydro-1H-indazol-5-yl]carbamate] | – | > 55
Cc1csc(C)c1C(=O)n1nc2c(c1N)CCCC2 (single isomer, unassigned) [Example 16, (3-Amino-4,5,6,7-tetrahydroindazol-2-yl)(2,4-dimethylthiophen-3-yl)methanone] | – | 15
Nc1c2c(nn1C(=O)[C@H]1CCNc3c(Cl)cccc31)CC[C@H](N)C2 (relative stereo) [Example 215, ((4S*)-8-chloro-1,2,3,4-tetrahydroquinolin-4-yl)((5S*)-3,5-diamino-4,5,6,7-tetrahydroindazol-2-yl)methanone] | – | 0.07
Cn1cc2c(n1)CCCC2C(=O)n1nc2c(c1N)CCCC2 (centres unmarked) [Example 88, (3-amino-4,5,6,7-tetrahydroindazol-2-yl)(2-methyl-4,5,6,7-tetrahydro-2H-indazol-4-yl)methanone] | – | 0.85
Nc1c2c(nn1C(=O)[C@H]1CCNc3c(Cl)cccc31)CC[C@@H](O)C2 (single isomer, unassigned) [Example 204, ((5R*)-3-amino-5-hydroxy-4,5,6,7-tetrahydroindazol-2-yl)((4S*)-8-chloro-1,2,3,4-tetrahydroquinolin-4-yl)methanone] | – | 0.04
Nc1c2c(nn1C(=O)[C@@H]1CCNc3ccc(F)cc31)C[C@@H](O)CC2 (single isomer, unassigned) [Example 182, ((6S*)-3-amino-6-hydroxy-4,5,6,7-tetrahydroindazol-2-yl)((4R*)-6-fluoro-1,2,3,4-tetrahydroquinolin-4-yl)methanone] | – | > 100
Nc1c2c(nn1C(=O)[C@@H]1CCNc3ccc(Cl)cc31)CC[C@@H](O)C2 (single isomer, unassigned) [Example 147, ((5R*)-3-amino-5-hydroxy-4,5,6,7-tetrahydroindazol-2-yl)((4R*)-6-chloro-1,2,3,4-tetrahydroquinolin-4-yl)methanone] | – | 33
Nc1c2c(nn1C(=O)c1cccc3ccccc13)CCCC2 [Example 39, (3-amino-4,5,6,7-tetrahydroindazol-2-yl)(naphthalen-1-yl)methanone] | – | 4
Nc1c2c(nn1C(=O)C1CCNc3cc(F)ccc31)CCCC2 (centres unmarked) [Example 115, (3-amino-4,5,6,7-tetrahydroindazol-2-yl)(7-fluoro-1,2,3,4-tetrahydroquinolin-4-yl)methanone] | – | 0.4
Cc1cc2c(C(=O)n3cc4c(n3)CCCC4)cccc2[nH]1 [Example 159] | – | 0.15

— US10538512B2, “Aminoacylindazole immunomodulators for treatment of autoimmune diseases” (The Rockefeller University, priority 2016, dated 2020)
